Assay results published in PubChem BioAssay AID489027 (Sanford-Burnham Center for Chemical Genomics, 2010).
The source made the active and inactive calls. How the calls were made is not given here.

Target: UPR counterscreen luciferase reporter, luminescence
Assay: activators in UPR counterscreen luciferase reporter, dose response, counter-screen for adaptive UPR activator project, cell-based, luminescence (AID 489027)

SMILES | EC50
OCCCn1c(C2CCCN2c2nc(-c3ccc(F)cc3)cs2)nc2cc(Cl)c(N3CCCCC3)cc21 (configuration not stated) | > 80 µM (inactive)
COc1ccc(C(=O)/C=C/c2cccs2)c(OC(=O)c2cccc([N+](=O)[O-])c2)c1 | inactive
Clc1ccc(C2=Nn3c(nnc3-c3cc(-c4ccccc4)n[nH]3)SC2)cc1 | 12.1 µM
COc1ccc(-c2c/c(=N\c3nc(-c4ccccc4)c(C)s3)c3ccccc3o2)cc1O | inactive
C/C(Cl)=C\Cn1c(O)c(N=NC(N)=S)c2cc(Br)ccc21 | 17.3 µM
C[C@H]1[C@H](C)CC[C@]2(C(=O)O)CC[C@]3(C)C(=CC[C@@H]4[C@@]5(C)C[C@@H](O)[C@H](O)C(C)(C)[C@@H]5CC[C@]43C)[C@H]12 | > 80 µM (inactive)
N#Cc1cc2c(nc1SCC(=O)Nc1sc3c(c1C#N)CCC3)CCCC2 | inactive
O=C(COc1ccc(/C=N/NC(=O)c2cc3ccccc3o2)cc1Br)Nc1ccccc1 | 3.69 µM
CN(/N=C\c1ccc(O)c(O)c1)c1nc(-c2ccccc2)cc(-c2ccccc2)n1 | 7.52 µM
COc1ccc(C(=O)Oc2cc3c4c(c2)C(C)=CC(C)(C)N4C(=O)C3=O)cc1OC | inactive
Brc1ccc2c(c1)C(c1ccc(N3CCOCC3)cc1)=NNC(c1cccs1)=N2 | inactive
Cc1ccc(NC(=O)c2c(C)nc3sc(C(=O)NC4CCCC4)c(N)c3c2-c2ccco2)c(C)c1 | inactive
COc1cc(NC(=O)c2ccc(C)cc2C)ccc1NC(=O)c1cc2ccccc2o1 | inactive
N#C/C(=C\c1ccc(OCc2ccccc2)cc1)C(=O)Nc1nc2c(s1)CCN(Cc1ccccc1)C2 | 13.3 µM
COc1cc(N(C(=O)Cc2cccs2)C(C(=O)NC2CCCCC2)c2ccc(C)cc2)ccc1-n1cnnn1 (configuration not stated) | > 80 µM (inactive)
CN1C(=O)/C(=C/c2ccc(C(=O)NC3CCCC3)cc2)Oc2ccccc21 | > 80 µM (inactive)
CCc1ccc2nc(N(CCCN(C)C)C(=O)c3ccc(S(=O)(=O)N4CCc5ccccc5C4)cc3)sc2c1 | 12.7 µM
O=C(C[C@H]1C/C=C\C[C@@H](NC(=O)OCC2c3ccccc3-c3ccccc32)C(=O)O[C@@H](c2ccccc2)CNC1=O)N[C@H](CO)Cc1ccccc1 | 18.1 µM
Cc1cc(NC(=O)CSc2nc3cc(Cl)ccc3c(=O)n2Cc2ccco2)no1 | > 80 µM (inactive)
COc1ccccc1C(=O)NC(=S)NNC(=O)c1sc2ccccc2c1Cl | inactive
Cc1ccc(-n2c(O)c(/C=N/c3ncc(Br)cc3Br)c(=O)[nH]c2=O)cc1 | inactive

SMILES | EC50
CCCCCC(=O)Nc1ccc(C(=O)N/N=C/c2ccc([N+](=O)[O-])cc2)cc1 | inactive
CN(C)CCCNC(=O)c1ccc(-c2nc(-c3ccc(Cl)cc3)cs2)cc1 | 9.53 µM
Cn1nc(C(F)(F)F)c(/C=N/OC(=O)c2ccccc2Cl)c1SCc1ccccc1Cl | inactive
Cc1cc(C)c2c(n1)sc1c(-c3ccccc3)c(C#N)c(N)nc12 | > 80 µM (inactive)
Cc1ccc2nsnc2c1NC(=O)c1ccc(-c2cc(Cl)ccc2Cl)o1 | > 80 µM (inactive)
COc1ccc(C(=O)/C=C/c2ccc(O)cc2)c(O)c1C/C=C(\C)CCC=C(C)C | 15.2 µM
COc1ccccc1NC(=O)c1cc2c(CO)cnc(C)c2oc1=Nc1ccccc1 | 13.3 µM
CCOc1cc(CNC(C)(C)CO)cc(Br)c1OCc1ccc(Cl)cc1Cl | > 80 µM (inactive)
COc1ccc(CCn2c(=S)[nH]c3cc(C(=O)NCc4ccco4)ccc3c2=O)cc1OC | > 80 µM (inactive)
COc1ccc2cc1Oc1ccc(cc1)CC1c3c(cc(OC)c4c3Oc3cc5c(cc3O4)CCNC5C2)CCN1C (configuration not stated) | > 80 µM (inactive)
COc1ccc(NC(=O)C(=O)N/N=C\c2ccc(CNC(=O)C(=O)Nc3ccc(C)c(C)c3)o2)c(OC)c1 | 4.19 µM
CCN(CC)S(=O)(=O)c1ccc2c(c1)C(=NO)c1cc(S(=O)(=O)N(CC)CC)ccc1-2 | > 80 µM (inactive)
O=[N+]([O-])c1ccc(N/N=C/c2cccc(O)c2O)c(S(=O)(=O)N2CCOCC2)c1 | 7.48 µM
Cc1ccc(Cc2cnc(NC(=O)/C(C#N)=C/c3ccc(-c4ccc([N+](=O)[O-])cc4)o3)s2)cc1 | 11.3 µM
OCCNc1nc(Nc2ccc(Br)cc2)nc2ccccc12 | 5.82 µM
O=C(NC1CCCCC1)c1cccc2c1C(=O)c1ccc(-c3ccc(OC(F)(F)F)cc3)cc1S2(=O)=O | > 80 µM (inactive)
CCOC(=O)N1CCN(S(=O)(=O)c2ccc(C(=O)Nc3nc4c(s3)CC(C)CC4)cc2)CC1 (configuration not stated) | 9.29 µM
O=C(COC(=O)c1ccc2[nH]c3c(c2c1)CCCC3)Nc1ccccc1Cl | > 80 µM (inactive)
CCCCOc1ccccc1NC(=O)Cn1c(-c2nonc2N)nc2ccccc21 | inactive
CCOC(=O)c1nnc(-c2ccc(C)cc2)nc1Oc1ccccc1Cl | inactive
COc1ccc(-c2ccc(C#N)c(SCC(=O)Nc3sc4c(c3C#N)CCC4)n2)cc1OC | > 80 µM (inactive)
